The text below walks through data of patent US20120077676A1, “Antifungal 1,2,4-Triazolyl Derivatives Having a 5-Sulfur Substituent” (BASF SE, priority 2009, published 2012).

The subject of one experiment is Phakopsora pachyrhizi. Description: Curative control of soy bean rust on soy beans, green house test. Format: in vivo, Phakopsora pachyrhizi on soy bean seedlings. The following applies: 300 ppm, curative spray after inoculation; assessed after 14 days; untreated plants 90% infected. How it is done:
(§1) The spray solutions were prepared in several steps: A mixture of acetone and/or dimethylsulfoxide and the wetting agent/emulsifier Wettol, which is based on ethoxylated alkylphenoles, in a relation (volume) solvent-emulsifier of 99 to 1 was added to 25 mg of the compound to give a total of 10 ml. Water was then added to total volume of 100 ml. This stock solution was diluted with the described solvent-emulsifier-water mixture to the given concentration.
Leaves of pot-grown soy bean seedlings were inoculated with spores of Phakopsora pachyrhizi. To ensure the success of the artificial inoculation, the plants were transferred to a humid chamber with a relative humidity of about 95% and 20 to 24° C. for 24 h. The next day the plants were cultivated for 2 days in a greenhouse chamber at 23-27° C. and a relative humidity between 60 and 80%. Then the plants were sprayed to run-off with an aqueous suspension, containing the concentration of active ingredient as described below. The plants were allowed to air-dry. Then the trial plants were cultivated for 14 days in a greenhouse chamber at 23-27° C. and a relative humidity between 60 and 80%. The extent of fungal attack on the leaves was visually assessed as % diseased leaf area.

For the next experiment, the system named is Puccinia recondite. Description: Preventative control of brown rust on wheat, green house test. It is filed as in vivo, Puccinia recondite on wheat seedlings. The settings on record: 300 ppm, preventative spray one day before inoculation; assessed after 6 days in greenhouse; untreated plants 80% infected. How it is done: as §1
The first two developed leaves of pot-grown wheat seedling were sprayed to run-off with an aqueous suspension, containing the concentration of active ingredient or their mixture as described below. The next day the plants were inoculated with spores of Puccinia recondite. To ensure the success the artificial inoculation, the plants were transferred to a humid chamber without light and a relative humidity of 95 to 99% and 20 to 24° C. for 24 h. Then the trial plants were cultivated for 6 days in a greenhouse chamber at 20-24° C. and a relative humidity between 65 and 70%. The extent of fungal attack on the leaves was visually assessed as % diseased leaf area.

In the next experiment the test system is Botrytis cinerea. Description: Activity against the grey mold Botrytis cinerea in the microtiterplate test (Botrci). Format: cell-based. The settings on record: 31 ppm active compound; absorption at 405 nm 7 days after inoculation; active compound-free control = 100%. As to the method:
The active substances were formulated separately as a stock solution in dimethyl sulfoxide (DMSO) at a concentration of 10 000 ppm. The stock solutions were mixed according to the ratio, pipetted onto a micro titer plate (MTP) and diluted with water to the concentration given below. A spore suspension of Botrytis cinerea in an aqueous biomalt solution was then added. The plates were placed in a water vapor-saturated chamber at a temperature of 18° C. Using an absorption photometer, the MTPs were measured at 405 nm 7 days after the inoculation. The measured parameters were compared to the growth of the active compound-free control variant (100%) and the fungus-free and active compound-free blank value to determine the relative growth in % of the pathogens in the respective active compounds.

With `OC(CC1CC1)(Cn1ncnc1S)c1ccc(Cl)cc1` (stereo not shown) [I.A.1, 2-(4-Chloro-phenyl)-3-cyclopropyl-1-(5-mercapto-[1,2,4]triazol-1-yl)-propan-2-ol], the “infection (% diseased leaf area)” value in the experiment on Phakopsora pachyrhizi is 0%; with Puccinia recondite, 20%.
On the same counts, the results for `OC(CC1CC1)(Cn1ncnc1S)c1ccc(Cl)cc1Cl` (stereo not shown) [I.A.2, 2-(2,4-Dichloro-phenyl)-3-cyclopropyl-1-(5-mercapto-[1,2,4]triazol-1-yl)-propan-2-ol] are 0% and 20%.
With `CC(C1CCCCC1)C(O)(Cn1ncnc1S)c1ccc(Cl)cc1` (stereo not shown) [I.A.3, 2-(4-Chloro-phenyl)-3-cyclohexyl-1-(5-mercapto-[1,2,4]triazol-1-yl)-butan-2-ol], the entries for the “infection (% diseased leaf area)” value in the experiment with Phakopsora pachyrhizi and in the experiment on Puccinia recondite were 0% and 20%, respectively. In the experiment with Botrytis cinerea, the “relative growth in % of the pathogen” value came to 0%.
Take `CC(C1CC1)C(O)(Cn1ncnc1S)c1ccccc1` (stereo not shown) [I.A.4, 2-Phenyl-3-cyclopropyl-1-(5-mercapto-[1,2,4]triazol-1-yl)-butan-2-ol]: the “infection (% diseased leaf area)” value turned out to be 0% in the experiment with Phakopsora pachyrhizi and 20% in the experiment on Puccinia recondite.
On the same counts, the results for `CC(C1CC1)C(O)(Cn1ncnc1S)c1ccc(Cl)c(Cl)c1` (stereo not shown) [I.A.5, 2-(3,4-Dichloro-phenyl)-3-cyclopropyl-1-(5-mercapto-[1,2,4]triazol-1-yl)-butan-2-ol] are 0% and 20%.
As for `CC(C1(C)CC1)C(O)(Cn1ncnc1S)c1ccc(Cl)cc1` (stereo not shown) [I.A.6, 2-(4-Chloro-phenyl)-3-(1-methylcyclopropyl)-1-(5-mercapto-[1,2,4]triazol-1-yl)-butan-2-ol], the “infection (% diseased leaf area)” value in the experiment with Phakopsora pachyrhizi amounted to 0%; in the experiment on Puccinia recondite it was 20%. Also, the “relative growth in % of the pathogen” value with Botrytis cinerea is 0%.
As for `CC(C1CCCC1)C(O)(Cn1ncnc1S)c1ccc(Cl)cc1` (stereo not shown) [I.A.7, 2-(4-Chloro-phenyl)-3-cyclopentyl-1-(5-mercapto-[1,2,4]triazol-1-yl)-butan-2-ol], the “infection (% diseased leaf area)” value in the experiment with Phakopsora pachyrhizi is recorded as 0%; in the experiment with Puccinia recondite, 20%.
On the same counts, the results for `CC(C1CC1)C(O)(Cn1ncnc1S)c1ccc(F)c(F)c1` (stereo not shown) [I.A.8, 2-(3,4-Difluoro-phenyl)-3-cyclopropyl-1-(5-mercapto-[1,2,4]triazol-1-yl)-butan-2-ol] are 0% and 20%.
On to `CC(C1(C)CC1)C(O)(Cn1ncnc1S)c1ccccc1` (stereo not shown) [I.A.9, 2-Phenyl-3-(1-methylcyclopropyl)-1-(5-mercapto-[1,2,4]triazol-1-yl)-butan-2-ol], for which the “infection (% diseased leaf area)” value in the experiment on Phakopsora pachyrhizi is 0%.
